According to PubChem BioAssay AID320 (DTP/NCI, 2004):
Values joined by “and” are separate entries in the source; they are usually repeats but may differ in a detail not shown here. Identical values can stand only once. Inconclusive results and toxic doses are left out. *1 amine or outer side, *2 acyl side, *3 side chain or, on linkers, in order; H or OH if unused. Where a SMILES comes first, the peptide text is derived from it. Bridges are numbered along the chain shown (N, C = ends). Roman numbers before positions name the chains, in order. [ ]: non-standard residue; d: D form. Actinocin(9to1) = Cc1c2oc3c(C)ccc(C(=O)[*:1])c3nc-2c(C(=O)[*:2])c(N)c1=O; aThr = C[C@H](O)[C@H](N)C(=O)O; NMeV = CN[C@H](C(=O)O)C(C)C; Sar = CNCC(=O)O

System: BDF1 mice, P329 reticulum cell sarcoma ip, survival T/C
Experiment: NCI In Vivo Anticancer Drug Screen. Data for tumor model P329 Reticulum Cell Sarcoma (intraperitoneal) in B6D2F1 (BDF1) mice
Conditions: endpoint: median survival time, schedule: Q01DX010 (ip), higher = longer survival
Protocol: The antitumor activity of compounds was measured in mice bearing transplantable tumors. Survival or tumor size were measured and the results are expressed as the measurement made in the treated group (T) divided by the measurement made in the vehicle treated control group (C). The tumor model used in this assay is P329 Reticulum Cell Sarcoma (intraperitoneal) in B6D2F1 (BDF1) mice

[1] = dose: 6.0 mg/kg/injection, vehicle: saline
[2] = dose: 8.0 mg/kg/injection, vehicle: saline
[3] = dose: 12.5 mg/kg/injection, vehicle: saline
[4] = dose: 25.0 mg/kg/injection, vehicle: saline
[5] = dose: 50.0 mg/kg/injection, vehicle: saline
[6] = dose: 100.0 mg/kg/injection, vehicle: saline
[7] = dose: 5.0 mg/kg/injection, vehicle: saline
[8] = dose: 10.0 mg/kg/injection, vehicle: saline
[9] = dose: 1.5 mg/kg/injection, vehicle: saline
[10] = dose: 3.0 mg/kg/injection, vehicle: saline
[11] = dose: 12.0 mg/kg/injection, vehicle: saline
[12] = dose: 3.13 mg/kg/injection, vehicle: saline
[13] = dose: 6.25 mg/kg/injection, vehicle: saline
[14] = dose: 200.0 mg/kg/injection, vehicle: saline
[15] = dose: 62.5 micrograms/kg/injection, vehicle: saline
[16] = dose: 125.0 micrograms/kg/injection, vehicle: saline
[17] = dose: 250.0 micrograms/kg/injection, vehicle: saline
[18] = dose: 500.0 micrograms/kg/injection, vehicle: saline

Structure (SMILES): Cc1c2oc3c(C)ccc(C(=O)N[C@@H]4C(=O)N[C@H](C(C)C)C(=O)N5CCC[C@H]5C(=O)N(C)CC(=O)N(C)[C@@H](C(C)C)C(=O)O[C@H]4C)c3nc-2c(C(=O)N[C@@H]2C(=O)N[C@H](C(C)C)C(=O)N3CCC[C@H]3C(=O)N(C)CC(=O)N(C)[C@@H](C(C)C)C(=O)O[C@H]2C)c(N)c1=O (I: [aThr][dV]P[Sar][NMeV] / II: [aThr][dV]P[Sar][NMeV]; ester I:1-I:C, II:1-II:C; linker I:N-II:N via Actinocin(9to1))
- T/C (dose: 12.5 micrograms/kg/injection, vehicle: other): 115 % of control and 120 % of control
- T/C (dose: 50.0 micrograms/kg/injection, vehicle: other): 166 % of control

Structure (SMILES): O=C(Nc1ccc(C2=NCCN2)cc1)c1ccc(C(=O)Nc2ccc(C3=NCCN3)cc2)c([N+](=O)[O-])c1
- T/C [1]: 153 % of control and 175 % of control
- T/C [2]: 188 % of control and 212 % of control
- T/C (dose: 18.0 mg/kg/injection, vehicle: saline): 91 % of control

Structure (SMILES): COc1cc(-c2ccc(Nc3ccccc3C(=O)O)c(OC)c2)ccc1Nc1ccccc1C(=O)O
- T/C [3]: 100 % of control
- T/C [4]: 103 % of control
- T/C [5]: 110 % of control
- T/C [6]: 110 % of control

Structure (SMILES): Cc1cc(N(CCCl)CCCl)ccc1N=Nc1ccccc1C(=O)O
- T/C [7]: 107 % of control and 114 % of control
- T/C [8]: 114 % of control

Structure (SMILES): CN(C)c1ccc(Nc2c3ccccc3nc3ccccc23)cc1
- T/C (dose: 36.0 mg/kg/injection, vehicle: saline): 121 % of control
- T/C (dose: 80.0 mg/kg/injection, vehicle: saline): 157 % of control
- T/C (dose: 120.0 mg/kg/injection, vehicle: saline): 153 % of control

Structure (SMILES): CC/C(=C(/CC)c1ccc(O)cc1)c1ccc(O)cc1
- T/C [3]: 107 % of control
- T/C [4]: 96 % of control and 107 % of control
- T/C [5]: 100 % of control and 103 % of control
- T/C [6]: 88 % of control

Structure (SMILES): CCN(CC)CCNc1ccc(C)c2sc3ccccc3c(=O)c12
- T/C [4]: 111 % of control and 114 % of control
- T/C [6]: 115 % of control

Structure (SMILES): Nc1ncnc2[nH]ncc12
- T/C [9]: 107 % of control
- T/C [10]: 111 % of control
- T/C [1]: 123 % of control
- T/C [11]: 88 % of control and 103 % of control

Structure (SMILES): O=C(O)CCCc1ccc(N(CCCl)CCCl)cc1
- T/C [12]: 96 % of control and 108 % of control
- T/C [13]: 103 % of control and 108 % of control
- T/C [3]: 116 % of control and 119 % of control

Structure (SMILES): CC(CCC(C)OS(C)(=O)=O)OS(C)(=O)=O (centres undefined)
- T/C (dose: 2.0 mg/kg/injection, vehicle: saline): 100 % of control and 107 % of control
- T/C (dose: 4.0 mg/kg/injection, vehicle: saline): 103 % of control and 107 % of control
- T/C [2]: 114 % of control and 115 % of control

Structure (SMILES): CS(=O)(=O)OCCC(=O)N1CCN(C(=O)CCOS(C)(=O)=O)CC1
- T/C [4]: 117 % of control
- T/C [14]: 89 % of control

Structure (SMILES): O[C@H](CN1CC1)[C@@H](O)CN1CC1
- T/C [15]: 106 % of control and 121 % of control
- T/C [16]: 123 % of control
- T/C [17]: 167 % of control
- T/C [18]: 166 % of control

Structure (SMILES): CN(Cc1cnc2nc(N)nc(N)c2n1)c1ccc(C(=O)N[C@@H](CCC(=O)O)C(=O)O)cc1
- T/C (dose: 0.19 mg/kg/injection, vehicle: other): 101 % of control and 106 % of control
- T/C (dose: 0.38 mg/kg/injection, vehicle: other): 100 % of control and 110 % of control and 116 % of control
- T/C (dose: 0.75 mg/kg/injection, vehicle: other): 114 % of control

Structure (SMILES): CSc1ncnc2nc[nH]c12
- T/C [4]: 115 % of control and 123 % of control

Structure (SMILES): N=[N+]=CC(=O)OCC(N)C(=O)O (centres undefined)
- T/C [13]: 153 % of control and 162 % of control
- T/C [3]: 175 % of control and 176 % of control
- T/C [4]: 87 % of control and 92 % of control

Structure (SMILES): CN(C)/N=N/c1nc[nH]c1C(N)=O
- T/C [4]: 121 % of control
- T/C [6]: 169 % of control
- T/C [14]: 100 % of control and 110 % of control

Structure (SMILES): O=NN(CCCl)C(=O)NCCCl
- T/C [12]: 158 % of control
- T/C [13]: 157 % of control and 158 % of control
- T/C [3]: 103 % of control

Structure (SMILES): S=P(N1CCOCC1)(N1CC1)N1CC1
- T/C (dose: 2.5 mg/kg/injection, vehicle: saline): 100 % of control
- T/C [7]: 100 % of control and 107 % of control
- T/C [8]: 100 % of control and 119 % of control
- T/C (dose: 20.0 mg/kg/injection, vehicle: saline): 107 % of control and 115 % of control

Structure (SMILES): CS(=O)(=O)OCC(O)C(O)C(O)C(O)COS(C)(=O)=O (centres undefined)
- T/C [4]: 100 % of control
- T/C [5]: 100 % of control and 103 % of control
- T/C [6]: 107 % of control
- T/C [14]: 121 % of control and 123 % of control

Structure (SMILES): C[C@H]1C(=O)O[C@@H]2CCN3CC=C(COC(=O)[C@](C)(O)[C@@]1(C)O)[C@H]23
- T/C [12]: 106 % of control and 107 % of control
- T/C [13]: 103 % of control and 107 % of control
- T/C [3]: 103 % of control
- T/C [4]: 100 % of control and 103 % of control

Structure (SMILES): N=C(N)c1ccc(Nc2ccc(C(=N)N)cc2)cc1
- T/C [9]: 93 % of control
- T/C [10]: 87 % of control
- T/C [1]: 96 % of control
- T/C [11]: 90 % of control

Structure (SMILES): COc1ccc2c(c1OC)C(=O)O[C@@H]2[C@H]1c2c(cc3c(c2OC)OCO3)CCN1C
- T/C (dose: 62.5 mg/kg/injection, vehicle: saline): 92 % of control

Structure (SMILES): O=P1(N(CCCl)CCCl)NCCCO1 (centres undefined)
- T/C (dose: 11.3 mg/kg/injection, vehicle: saline): 106 % of control and 121 % of control
- T/C (dose: 22.5 mg/kg/injection, vehicle: saline): 86 % of control

Structure (SMILES): COC(=O)[C@@H]1c2cc3c(c(O)c2[C@@H](OC2OC(C)C(OC)C(C)(OC)C2OC)C[C@]1(C)O)C(=O)c1c(O)cc2c(c1C3=O)O[C@H]1O[C@]2(C)[C@H](O)[C@@H](N(C)C)[C@@H]1O (some centres undefined)
- T/C [15]: 100 % of control
- T/C [16]: 93 % of control and 100 % of control
- T/C [17]: 90 % of control and 100 % of control
- T/C [18]: 93 % of control and 100 % of control

Structure (SMILES): CO[C@@H]1[C@@H](OC2OC(C)C(OC3CC(C)(O)C(OC(=O)CC(C)C)C(C)O3)C(N(C)C)C2O)[C@@H](CC=O)C[C@@H](C)C(=O)/C=C/C2O[C@H]2C[C@@H](C)OC(=O)C[C@H]1OC(C)=O (some centres undefined)
- T/C (dose: 37.5 mg/kg/injection, vehicle: saline): 100 % of control
- T/C (dose: 75.0 mg/kg/injection, vehicle: saline): 100 % of control and 107 % of control
- T/C (dose: 150.0 mg/kg/injection, vehicle: saline): 103 % of control and 107 % of control
- T/C (dose: 300.0 mg/kg/injection, vehicle: saline): 107 % of control and 114 % of control

Structure (SMILES): Nc1nc(N)c2nc(CNc3ccc(C(=O)NC(CCC(=O)O)C(=O)O)cc3)cnc2n1 (centres undefined)
- T/C (dose: 0.05 mg/kg/injection, vehicle: other): 111 % of control
- T/C (dose: 0.1 mg/kg/injection, vehicle: other): 107 % of control
- T/C (dose: 0.2 mg/kg/injection, vehicle: other): 123 % of control
